In patent US20120115724A1, “METHOD OF CONTROLLING UNDESIRED VEGETATION” (SYNGENTA CROP PROTECTION LLC, priority 2009, published 2012):

How the values were obtained:
[1] = tested on: XANST Xanthium strumarium; assay: Post-emergence crop and weed test (Example 15); assay type: in vivo; settings: 360 h, 30 g/ha, after 15 days, read-out: Percentage damage XANST
Procedure, shortened: (§1)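 Plants grown 14 days in glasshouse pots (22/16 °C day/night, 16 h light, 65% humidity) were sprayed post-emergence with compound formulated as a 5% stock in acetone/Emulsogen EL/NMP/DPG-monoethyl ether, diluted in water with 0.2% X-77. Damage was scored after 15 days (0 = none, 100 = total).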

SIDSP Sida spinosa = assay: Post-emergence crop and weed test (Example 15); assay type: in vivo; settings: 360 h, 30 g/ha, after 15 days, read-out: Percentage damage SIDSP
Procedure, shortened: as §1

GLXMA Soybean = assay: Post-emergence crop and weed test (Example 15); assay type: in vivo; settings: Glycine max, 360 h, 30 g/ha, after 15 days, read-out: Percentage damage GLXMA
Procedure, shortened: as §1

[2] = tested on: ABUTH Abutilon theophrasti; assay: Post-emergence crop and weed test (Example 15); assay type: in vivo; settings: 360 h, 30 g/ha, after 15 days, read-out: Percentage damage ABUTH
Procedure, shortened: as §1

GALAP Galium aparine = assay: Post-emergence crop and weed test (Example 15); assay type: in vivo; settings: 360 h, 30 g/ha, after 15 days, read-out: Percentage damage GALAP
Procedure, shortened: as §1

SINAR Sinapis arvensis = assay: Post-emergence crop and weed test (Example 15); assay type: in vivo; settings: Mutarda arvensis, 360 h, 30 g/ha, after 15 days, read-out: Percentage damage SINAR
Procedure, shortened: as §1

CHEAL Chenopodium album = assay: Post-emergence crop and weed test (Example 15); assay type: in vivo; settings: 360 h, 30 g/ha, after 15 days, read-out: Percentage damage CHEAL
Procedure, shortened: as §1

[3] = tested on: AMARE Amaranthus retroflexus; assay: Post-emergence crop and weed test (Example 15); assay type: in vivo; settings: 360 h, 30 g/ha, after 15 days, read-out: Percentage damage AMARE
Procedure, shortened: as §1

[4] = tested on: POLCO Polygonum convolvulus; assay: Post-emergence crop and weed test (Example 15); assay type: in vivo; settings: Fallopia convolvulus, 360 h, 30 g/ha, after 15 days, read-out: Percentage damage POLCO
Procedure, shortened: as §1

KCHSC Kochia scoparia = assay: Post-emergence crop and weed test (Example 15); assay type: in vivo; settings: Bassia scoparia, 360 h, 30 g/ha, after 15 days, read-out: Percentage damage KCHSC
Procedure, shortened: as §1

[5] = tested on: EPHHL Euphorbia heterophylla; assay: Post-emergence crop and weed test (Example 15); assay type: in vivo; settings: 360 h, 30 g/ha, after 15 days, read-out: Percentage damage EPHHL
Procedure, shortened: as §1

IPOHE Ipomoea hederacea = assay: Post-emergence crop and weed test (Example 15); assay type: in vivo; settings: 360 h, 30 g/ha, after 15 days, read-out: Percentage damage IPOHE
Procedure, shortened: as §1

VERPE Veronica persica = assay: Post-emergence crop and weed test (Example 15); assay type: in vivo; settings: 360 h, 30 g/ha, after 15 days, read-out: Percentage damage VERPE
Procedure, shortened: as §1

Setaria faberi (SETFA) [6] = assay: Pre-emergence biological efficacy (Example 13); assay type: in vivo; settings: Setaria faberi, 312 h; pre-emergence, 1,000 g/ha, after 13 days; read-out: Percentage damage SETFA
Procedure, shortened: (§2)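 Pots of standard soil are sown, held one day under controlled glasshouse conditions, then sprayed at 250 or 1000 g/ha. Plants grow on at 24/16 °C with 14 h light and 65% humidity, watered twice daily, and damage is assessed after 13 days.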

[7] = tested on: Echinochloa crus-galli (ECHCG); assay: Pre-emergence biological efficacy (Example 13); assay type: in vivo; settings: Echinochloa crus-galli, 312 h; pre-emergence, 1,000 g/ha, after 13 days; read-out: Percentage damage ECHCG
Procedure, shortened: as §2

[8] = tested on: Amaranthus retroflexus (AMARE); assay: Pre-emergence biological efficacy (Example 13); assay type: in vivo; settings: Amaranthus retroflexus, 312 h; pre-emergence, 1,000 g/ha, after 13 days; read-out: Percentage damage AMARE
Procedure, shortened: as §2

Solanum nigrum (SOLNI) [9] = assay: Pre-emergence biological efficacy (Example 13); assay type: in vivo; settings: Solanum nigrum, 312 h; pre-emergence, 1,000 g/ha, after 13 days; read-out: Percentage damage SOLNI
Procedure, shortened: as §2

[10] = tested on: Alopecurus myosuroides (ALOMY); assay: Pre-emergence biological efficacy (Example 13); assay type: in vivo; settings: Alopecurus myosuroides, 312 h; pre-emergence, 1,000 g/ha, after 13 days; read-out: Percentage damage ALOMY
Procedure, shortened: as §2

Setaria faberi (SETFA) [11] = assay: Post-emergence biological efficacy (Example 14); assay type: in vivo; settings: Setaria faberi, 312 h; post-emergence, 1,000 g/ha, after 13 days; read-out: Percentage damage SETFA
Procedure, shortened: (§3)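 Seeds are sown in pots of standard soil and grown for 8 days under glasshouse conditions (24/16 °C, 14 h light, 65% humidity). Seedlings are then sprayed at 250 or 1000 g/ha in aqueous acetone with 0.5% Tween 20, kept under the same conditions, and rated for damage (0–100) after 13 days.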

[12] = tested on: Ipomea hederaceae (IPOHE); assay: Post-emergence biological efficacy (Example 14); assay type: in vivo; settings: Ipomoea hederacea, 312 h; post-emergence, 1,000 g/ha, after 13 days; read-out: Percentage damage IPOHE
Procedure, shortened: as §3

[13] = tested on: Echinochloa crus-galli (ECHCG); assay: Post-emergence biological efficacy (Example 14); assay type: in vivo; settings: Echinochloa crus-galli, 312 h; post-emergence, 1,000 g/ha, after 13 days; read-out: Percentage damage ECHCG
Procedure, shortened: as §3

[14] = tested on: Amaranthus retroflexus (AMARE); assay: Post-emergence biological efficacy (Example 14); assay type: in vivo; settings: Amaranthus retroflexus, 312 h; post-emergence, 1,000 g/ha, after 13 days; read-out: Percentage damage AMARE
Procedure, shortened: as §3

Solanum nigrum (SOLNI) [15] = assay: Post-emergence biological efficacy (Example 14); assay type: in vivo; settings: Solanum nigrum, 312 h; post-emergence, 1,000 g/ha, after 13 days; read-out: Percentage damage SOLNI
Procedure, shortened: as §3

[16] = tested on: Alopecurus myosuroides (ALOMY); assay: Post-emergence biological efficacy (Example 14); assay type: in vivo; settings: Alopecurus myosuroides, 312 h; post-emergence, 1,000 g/ha, after 13 days; read-out: Percentage damage ALOMY
Procedure, shortened: as §3

Compound `C=Cc1c(N)nc(-c2ccc(Cl)c(N(C)C)c2F)nc1C(=O)OC` [Compound 1] has a pest or weed control at 30 g/ha [1] of 100%, a pest or weed control at 30 g/ha (SIDSP Sida spinosa) of 60% and a plant injury at 30 g/ha (GLXMA Soybean) of 0%. It also gave a pest or weed control at 30 g/ha [2] of 90%, a pest or weed control at 30 g/ha (GALAP Galium aparine) of 20% and a pest or weed control at 30 g/ha (SINAR Sinapis arvensis) of 10%. For the same compound, the pest or weed control at 30 g/ha (CHEAL Chenopodium album) was 90%, the pest or weed control at 30 g/ha [3] was 100% and the pest or weed control at 30 g/ha [4] was 90%. For the same compound, the pest or weed control at 30 g/ha (KCHSC Kochia scoparia) was 80%, the pest or weed control at 30 g/ha [5] was 90% and the pest or weed control at 30 g/ha (IPOHE Ipomoea hederacea) was 40%. For the same compound, the pest or weed control at 30 g/ha (VERPE Veronica persica) was 80%, the pest or weed control at 1000 g/ha (Setaria faberi (SETFA) [6]) was 90% and the pest or weed control at 1000 g/ha [7] was 90%. For the same compound, the pest or weed control at 1000 g/ha [8] was 100%, the pest or weed control at 1000 g/ha (Solanum nigrum (SOLNI) [9]) was 100% and the pest or weed control at 1000 g/ha [10] was 80%. For the same compound, the melting point was 136 to 137 °C, the pest or weed control at 1000 g/ha (Setaria faberi (SETFA) [11]) was 100% and the pest or weed control at 1000 g/ha [12] was 90%. For the same compound, the pest or weed control at 1000 g/ha [13] was 100%, the pest or weed control at 1000 g/ha [14] was 100% and the pest or weed control at 1000 g/ha (Solanum nigrum (SOLNI) [15]) was 100%. It also gave a pest or weed control at 1000 g/ha [16] of 90%.
